Results: patent US11577092B2, “Phosphor-containing drug activator activatable by a monte carlo derived X-ray exposure, system containing the activator, and methods for use” (IMMUNOLIGHT, LLC, priority 2016, dated 2023)

Columns and labels:
[1] = test system: 4T1-HER2 cells; assay: Annexin V positivity by flow cytometry 48 hours after treatment; format: cell-based, murine; conditions: 10 μM 8-MOP equivalent UVADEX, 50 μg/mL phosphor, 1 Gy of 80 kVp; UVADEX alone with or without x-ray
Method: (§1) In-vitro studies were conducted on plated cells following standard procedures. Cells were maintained in RPMI-1640 supplemented with 10% fetal bovine serum and L-glutamine from GIBCO (Grand Island, N.Y.) growing in a humidified atmosphere of 5% CO2. After incubation, cells were trypsinized and plated evenly onto twelve 12-well plates for 24 hours. […] Each plate had 12 wells with three wells for each of the four treatment arms. The plates were then irradiated with x-rays by placing the plate at a known distance from the x-ray source (50 cm). After irradiation, the cells were incubated on the plate for 48 hours prior to performing flow cytometry. […]
(§2) Two primary flow cytometry analyses were used, both determined at 48 hours after treatment. […] The first analysis evaluated was metabolic cell viability (herein referred to as cell viability) calculated from the number of whole cells per well as determined using forward scattering (FSC). […]
(§3) FIGS. 13A-13D illustrates the efficacy of treatment in-vitro in 4T1-HER2 cells, utilizing a regimen of 1/10-diluted UVADEX (with equivalent of 10 uM 8-MOP), 50 μg/mL phosphor 1 Gy of 80 kVp x-rays. […] In FIG. 13A, cell viability after treatment (10 μM 8-MOP equivalent dilution of UVADEX, 50 μg/mL phosphor, 1 Gy of 80 kVp radiation) as determined by Guava flow cytome cytometry is depicted. […]

[2] = test system: 4T1-HER2 cells; assay: Cell viability by Guava flow cytometry (forward scattering) 48 hours after treatment; format: cell-based, murine; conditions: single component, 1 Gy of 80 kVp; UVADEX p=0.97, phosphors p=0.034
Method: as §1, §2, §3

[3] = test system: 4T1-HER2 cells; assay: Methylene blue staining for cell viability post treatment; format: cell-based, murine; conditions: individual components; 1 Gy of 80 kVp x-rays; phosphor 25, 50, 100 μg/mL; UVADEX 10 uM 8-MOP
Description: Methylene blue staining of viable 4T1-HER2 cells confirms that the device works well according to the target parameters identified above. A plate having six (6) wells is subjected to treatment. FIG. 11 is a photographic depiction showing of Methylene Blue stain for cell viability post treatment with X-ray, phosphors and UVADEX. One well (#1) is the control. One well (#2) has phosphor coated with EC and DLC (H100). One well (#3) has phosphor coated with EC (but no DLC). One well (#4) has drug UVADEX but no phosphors. One well (#5) has drug UVADEX and phosphors coated with EC and DLC. One well (#6) has drug UVADEX and phosphors coated with EC and no DLC.
All wells were exposed to the optimized x-ray initiation energy noted above. […] One added benefit to a dual coating is redundancy in safety of the treatment.
(§4) Other assays were used to provide independent complimentary information on cell viability, e.g. Methylene blue staining and ATP-induced Luminescence imaging (Cell-Titer-Glo® Luminescence Cell Viability Assay). The luminescence imaging permitted investigation of the cytotoxicity of psoralen activated directly with a UV lamp, and in the absence of phosphors and x-ray radiation.
FIGS. 13A-13D illustrates the efficacy of treatment in-vitro in 4T1-HER2 cells, utilizing a regimen of 1/10-diluted UVADEX (with equivalent of 10 uM 8-MOP), 50 μg/mL phosphor 1 Gy of 80 kVp x-rays. […]

[4] = test system: CT2A (murine malignant glioma), 4T1 and KP-B (sarcoma) cell lines; assay: Cell-Titer-Glo Luminescence Cell Viability Assay on three cell lines; format: cell-based; conditions: psoralen 40 μM; UV light 0, 0.25, 0.5, 1.0 J/cm^2; N=4
Description: Guava Annexin V flow cell cytometry was used to quantify cytotoxicity in 3 murine tumor cell lines (mammary −4T1; 4T1-HER2, 4T1 stably transfected with the human HER2 oncogene; glioma-CT2A; sarcoma KP-B). The mouse breast cancer cell line 4T1 was purchased from ATCC. 4T1-HER2 was provided by Dr. Michael Kershaw (Cancer Immunology Program, Peter MacCallum Cancer Centre, Victoria, Australia) and maintained in DMEM with penicillin/streptomycin and 10% FBS The Sarcoma KP-B cell lines were derived from primary tumors LSL-Kras; p53 Flox/Flox mice (45).
as §4
FIG. 14B presents data on CT2A malignant glioma cells, for a range of treatment parameters including variable x-ray dose (0, 0.67 and 1 Gy), phosphor concentration (50 or 100 μg) and psoralen concentration (8-MOP) at 10, 20 and 40 μM respectively. […] N=4 for each cell line at each UV light condition (0, 0.25, 0.5, 1.0 J/cm^2). The psoralen concentration was 40 μM. […]

Structure (SMILES)	increase in Annexin V staining (apoptotic activity) [1]	reduction in cell viability when radiation was added [2]	effect in methyl blue staining [3]	viable cells after UV light activated psoralen [4]
COc1c2occc2cc2ccc(=O)oc12 [UVADEX, 8-methoxypsoralen]	negligible apoptotic activity	no significant effect	little effect	–
O=c1ccc2cc3ccoc3cc2o1 [psoralen]	–	–	–	reduce viable cells in 3 cell lines
